# Source: patent publication US8952024B2, “Herbicidal pyrimidone derivatives” (E I du Pont de Nemours and Company, priority 2009, dated 2015)
# How the values were obtained:
# Format in all cases: in vivo
# [1] = tested on: barnyardgrass (Echinochloa crus-galli); assay: Test A pre-/postemergence plant response
# Outline: (§1)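 Visual injury rating on a 0–100 scale (0 = no effect, 100 = complete control) was made versus untreated controls after about ten days in the greenhouse. Compounds, formulated in a non-phytotoxic solvent mix containing surfactant, were sprayed preemergence onto loam/sand soil and postemergence onto one- to two-leaf plants.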
# [2] = tested on: pigweed (Amaranthus retroflexus); assay: Test A pre-/postemergence plant response
# Outline: as §1
# [3] = tested on: Italian ryegrass (Lolium multiflorum); assay: Test B pre-/postemergence plant response
# Outline: (§2)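 Pre-em in loam/sand; post-em at 1–4 leaf (2–18 cm) in peat mix. Solvent + surfactant formulation. Greenhouse 13–15 d; visual % control vs untreated, 0–100.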
# [4] = tested on: Surinam grass (Brachiaria decumbens); assay: Test B pre-/postemergence plant response
# Outline: as §2
# [5] = tested on: blackgrass (Alopecurus myosuroides); assay: Test B pre-/postemergence plant response
# Outline: as §2
# [6] = tested on: downy bromegrass (Bromus tectorum); assay: Test B pre-/postemergence plant response
# Outline: as §2
# [7] = tested on: goosegrass (Eleusine indica); assay: Test B pre-/postemergence plant response
# Outline: as §2
# [8] = tested on: large crabgrass (Digitaria sanguinalis); assay: Test B pre-/postemergence plant response
# Outline: as §2
# [9] = tested on: morningglory (Ipomoea coccinea); assay: Test B pre-/postemergence plant response
# Outline: as §2
# [10] = tested on: velvetleaf (Abutilon theophrasti); assay: Test B pre-/postemergence plant response
# Outline: as §2
# [11] = tested on: wheat (Triticum aestivum); assay: Test B pre-/postemergence plant response
# Outline: as §2
# [12] = tested on: woolly cupgrass (Eriochloa villosa); assay: Test B pre-/postemergence plant response
# Outline: as §2
# [13] = tested on: yellow nutsedge (Cyperus esculentus); assay: Test B pre-/postemergence plant response
# Outline: as §2
# [14] = Postemergence, 125 g ai/ha, visual injury, 0 to 100 scale (0 no effect, 100 complete control), approx. ten days
# [15] = Postemergence, 500 g ai/ha, 0 to 100 scale, 0 = no effect, 100 = complete control, approx. ten days
# [16] = Preemergence, 125 g ai/ha, 0 to 100 scale, 0 = no effect, 100 = complete control
# [17] = Preemergence, 500 g ai/ha, visual injury, 0 to 100 scale (0 no effect, 100 complete control), approx. ten days
# [18] = 250 g ai/ha, Preemergence, 0 to 100 scale
# [19] = Postemergence, 31 g ai/ha, scale 0 to 100 (0 no effect, 100 complete control)
# [20] = Postemergence, 62 g ai/ha, scale 0 (no effect) to 100 (complete control), 13 to 15 days
# [21] = Postemergence, 125 g ai/ha, visual rating after 13 to 15 days, scale 0 (no effect) to 100 (complete control)
# [22] = Postemergence, 250 g ai/ha, scale 0 to 100
# [23] = Preemergence, 31 g ai/ha, scale 0 to 100 (0 no effect, 100 complete control)
# [24] = Preemergence, 62 g ai/ha, scale 0 to 100, 0 no effect, 100 complete control
# [25] = Preemergence, 125 g ai/ha, 0 to 100 scale
smiles,measurement,setting,value
Cc1cccc(-n2c(-c3ccccc3)ncc(C(=O)C3=C(O)CCCC3=O)c2=O)c1C [Compound 27],Barnyardgrass plant response rating,[1]; [14],50
same,"Plant response rating, Barnyardgrass",[1]; [15],90
same,"Plant response rating, Barnyardgrass",[1]; [16],10
same,"Plant response rating, Barnyardgrass",[1]; [17],80
same,Pigweed plant response rating,[2]; [14],100
same,"Plant response rating, Pigweed",[2]; [15],100
same,"Plant response rating, Pigweed",[2]; [16],70
same,"Plant response rating, Pigweed",[2]; [17],90
same,"Plant response rating, Ryegrass, Italian",[3]; [18],0
same,"Plant response rating, Ryegrass, Italian",[3]; [19],0
same,"Plant response rating, Ryegrass, Italian",[3]; [20],5
same,"Plant response rating, Ryegrass, Italian",[3]; [21],5
same,"Ryegrass, Italian plant response rating",[3]; [22],10
same,"Plant response rating, Ryegrass, Italian",[3]; [23],0
same,"Plant response rating, Ryegrass, Italian",[3]; [24],0
same,"Ryegrass, Italian plant response rating",[3]; [25],0
same,"Plant response rating, Surinam Grass",[4]; [18],95
same,"Plant response rating, Surinam Grass",[4]; [19],50
same,"Plant response rating, Surinam Grass",[4]; [20],70
same,"Plant response rating, Surinam Grass",[4]; [21],80
same,Surinam Grass plant response rating,[4]; [22],80
same,"Plant response rating, Surinam Grass",[4]; [23],0
same,"Plant response rating, Surinam Grass",[4]; [24],20
same,Surinam Grass plant response rating,[4]; [25],60
same,"Plant response rating, Blackgrass",[5]; [18],30
same,"Plant response rating, Blackgrass",[5]; [19],0
same,"Plant response rating, Blackgrass",[5]; [20],5
same,"Plant response rating, Blackgrass",[5]; [21],45
same,Blackgrass plant response rating,[5]; [22],50
same,"Plant response rating, Blackgrass",[5]; [23],0
same,"Plant response rating, Blackgrass",[5]; [24],0
same,Blackgrass plant response rating,[5]; [25],10
same,"Plant response rating, Bromegrass, Downy",[6]; [18],30
same,"Plant response rating, Bromegrass, Downy",[6]; [19],5
same,"Plant response rating, Bromegrass, Downy",[6]; [20],5
same,"Plant response rating, Bromegrass, Downy",[6]; [21],20
same,"Bromegrass, Downy plant response rating",[6]; [22],30
same,"Plant response rating, Bromegrass, Downy",[6]; [23],0
same,"Plant response rating, Bromegrass, Downy",[6]; [24],0
same,"Bromegrass, Downy plant response rating",[6]; [25],0
same,"Plant response rating, Goosegrass",[7]; [18],100
same,"Plant response rating, Goosegrass",[7]; [19],90
same,"Plant response rating, Goosegrass",[7]; [20],90
same,"Plant response rating, Goosegrass",[7]; [21],98
same,Goosegrass plant response rating,[7]; [22],98
same,"Plant response rating, Goosegrass",[7]; [23],80
same,Goosegrass plant response rating,[7]; [25],100
same,"Plant response rating, Crabgrass, Large",[8]; [18],100
same,"Plant response rating, Crabgrass, Large",[8]; [19],50
same,"Plant response rating, Crabgrass, Large",[8]; [20],50
same,"Plant response rating, Crabgrass, Large",[8]; [21],60
same,"Crabgrass, Large plant response rating",[8]; [22],60
same,"Plant response rating, Crabgrass, Large",[8]; [23],5
same,"Plant response rating, Crabgrass, Large",[8]; [24],80
same,"Crabgrass, Large plant response rating",[8]; [25],100
same,"Plant response rating, Morningglory",[9]; [18],100
same,"Plant response rating, Morningglory",[9]; [19],50
same,"Plant response rating, Morningglory",[9]; [20],80
same,"Plant response rating, Morningglory",[9]; [21],80
same,Morningglory plant response rating,[9]; [22],90
same,"Plant response rating, Morningglory",[9]; [23],100
same,"Plant response rating, Morningglory",[9]; [24],100
same,Morningglory plant response rating,[9]; [25],100
same,"Plant response rating, Velvetleaf",[10]; [18],95
same,"Plant response rating, Velvetleaf",[10]; [19],50
same,"Plant response rating, Velvetleaf",[10]; [20],60
same,"Plant response rating, Velvetleaf",[10]; [21],80
same,Velvetleaf plant response rating,[10]; [22],90
same,"Plant response rating, Velvetleaf",[10]; [23],55
same,"Plant response rating, Velvetleaf",[10]; [24],85
same,Velvetleaf plant response rating,[10]; [25],90
same,"Plant response rating, Wheat",[11]; [18],5
same,"Plant response rating, Wheat",[11]; [19],0
same,"Plant response rating, Wheat",[11]; [20],5
same,"Plant response rating, Wheat",[11]; [21],10
same,Wheat plant response rating,[11]; [22],30
same,"Plant response rating, Wheat",[11]; [23],0
same,"Plant response rating, Wheat",[11]; [24],0
same,Wheat plant response rating,[11]; [25],0
same,"Plant response rating, Cupgrass, Woolly",[12]; [18],80
same,"Plant response rating, Cupgrass, Woolly",[12]; [19],60
same,"Plant response rating, Cupgrass, Woolly",[12]; [20],60
same,"Plant response rating, Cupgrass, Woolly",[12]; [21],70
same,"Cupgrass, Woolly plant response rating",[12]; [22],80
same,"Plant response rating, Cupgrass, Woolly",[12]; [23],0
same,"Plant response rating, Cupgrass, Woolly",[12]; [24],0
same,"Cupgrass, Woolly plant response rating",[12]; [25],60
same,"Plant response rating, Nutsedge, Yellow",[13]; [18],90
same,"Plant response rating, Nutsedge, Yellow",[13]; [19],30
same,"Plant response rating, Nutsedge, Yellow",[13]; [20],40
same,"Plant response rating, Nutsedge, Yellow",[13]; [21],50
same,"Nutsedge, Yellow plant response rating",[13]; [22],55
same,"Plant response rating, Nutsedge, Yellow",[13]; [23],0
same,"Plant response rating, Nutsedge, Yellow",[13]; [24],20
same,"Nutsedge, Yellow plant response rating",[13]; [25],30
